Measured values from ChEMBL document CHEMBL4665919, “Novel Tricyclic Pyroglutamide Derivatives as Potent RORγt Inverse Agonists Identified using a Virtual Screening Approach” (ACS Med Chem Lett, 2020).
One block for each molecule: values may come before it.

Tests used:
[1] = Half life in mouse liver microsomes; format: ADME, Microsome
[2] = Half life in human liver microsomes; format: ADME, Microsome
[3] = target: T1, Nuclear receptor ROR-gamma (Homo sapiens, UniProt P51449); assay: Inverse agonist activity at Gal4-fused RORgammat LBD (unknown origin) by reporter gene assay
T1 sequence (P51449 whole entry): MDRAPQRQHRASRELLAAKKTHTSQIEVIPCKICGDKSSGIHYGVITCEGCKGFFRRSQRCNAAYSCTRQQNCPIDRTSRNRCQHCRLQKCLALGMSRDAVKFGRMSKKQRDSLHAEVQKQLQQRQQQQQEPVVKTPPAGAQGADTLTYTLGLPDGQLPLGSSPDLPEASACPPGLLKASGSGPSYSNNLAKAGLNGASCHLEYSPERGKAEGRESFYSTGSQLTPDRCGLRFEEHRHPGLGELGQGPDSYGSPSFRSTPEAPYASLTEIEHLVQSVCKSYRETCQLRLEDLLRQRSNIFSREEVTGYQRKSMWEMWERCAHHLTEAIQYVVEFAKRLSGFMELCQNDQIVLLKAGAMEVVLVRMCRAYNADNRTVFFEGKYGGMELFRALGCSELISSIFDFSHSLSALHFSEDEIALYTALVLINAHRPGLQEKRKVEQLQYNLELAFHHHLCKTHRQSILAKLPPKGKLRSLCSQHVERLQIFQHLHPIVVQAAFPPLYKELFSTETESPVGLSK

[4] = Half life in rat liver microsomes; format: ADME, Microsome
[5] = target: T1, Nuclear receptor ROR-gamma; assay: Inverse agonist activity at RORgammat in human whole blood assessed as IL-17 production by ELISA; format: tissue-based
[6] = (§1) Cmax in IL-23 induced acanthosis C57BL/6 mouse model of psoriasis measured as (3R,5S)-3-Fluoro-5-((3aR,9bR)-9b-((4-fluorophenyl)sulfonyl)-7-(perfluoropropan-2-yl)-2,3,3a,4,5,9b-hexahydro-1H-benzo[e]indole-3-carbonyl)-1-(2-hydroxy-2-methylpropyl)pyrrolidin-2-one at 45 mg/kg, po qd administered for 9 days 2 hrs before IL-23 injection; format: ADME, organism-based; parameters: route oral, dose 45 mg/kg, time 9 day; settings: in vivo, 216 h
[7] = as §1, with “AUC” for “Cmax”, “15” for “45”; format: ADME, organism-based; parameters: time 9 day, dose 15 mg/kg; settings: in vivo, 216 h
[8] = as §1, with “AUC” for “Cmax”, “5” for “45”, “for” for “for 9 days”, “injection measured on day 1” for “injection”; format: ADME, organism-based; parameters: time 1 day, dose 5 mg/kg; settings: in vivo, 24 h
[9] = as §1, with “Drug concentration” for “Cmax”, “acanthosis in” for “acanthosis”, “mouse” for “mouse model of psoriasis”, “for” for “for 9 days”, “injection measured on day 11” for “injection”; format: ADME, organism-based; settings: in vivo, 24 h, time 1 day, read-out: Ct
[10] = as §1, with “AUC” for “Cmax”, “5” for “45”; format: ADME, organism-based; parameters: dose 5 mg/kg, time 9 day; settings: in vivo, 216 h
[11] = as §1, with “Drug concentration” for “Cmax”, “acanthosis in” for “acanthosis”, “mouse” for “mouse model of psoriasis”; format: ADME, organism-based; settings: in vivo, 216 h, time 9 day, read-out: Ct
[12] = Ratio of IC90 for inverse agonist activity at RORgammat in human whole blood assessed as IL-17 production by ELISA to drug concentration in IL-23 induced acanthosis in […] mouse measured as (3R,5S)-3-Fluoro-5-((3aR,9bR)-9b-((4-fluorophenyl)sulfonyl)-7-(perfluoropropan-2-yl)-2,3,3a,4,5,9b-hexahydro-1H-benzo[e]indole-3-carbonyl)-1-(2-hydroxy-2-methylpropyl)pyrrolidin-2-one at 45 mg/kg, po qd …
Mus musculus [13] = assay: as §1, with “Suppression of ear thickness” for “Cmax”, “injection measured every other day relative to IL-23 antibody treatment” for “injection”; format: functional; settings: C57BL/6, po, 216 h, time 9 day
[14] = as §1, with “5” for “45”; format: ADME, organism-based; parameters: route oral, dose 5 mg/kg, time 9 day; settings: in vivo, 216 h
[15] = (§2) Drug concentration in IL-23 induced acanthosis in C57BL/6 mouse measured as (3R,5S)-3-Fluoro-5-((3aR,9bR)-9b-((4-fluorophenyl)sulfonyl)-7-(perfluoropropan-2-yl)-2,3,3a,4,5,9b-hexahydro-1H-benzo[e]indole-3-carbonyl)-1-(2-hydroxy-2-methylpropyl)pyrrolidin-2-one at 15 mg/kg, po qd administered for 2 hrs before IL-23 injection measured on day 1; format: ADME, organism-based; settings: in vivo, 24 h, time 1 day, read-out: Ct
[16] = as §2, with “AUC” for “Drug concentration”, “acanthosis” for “acanthosis in”, “mouse model of psoriasis” for “mouse”; format: ADME, organism-based; parameters: time 1 day, dose 15 mg/kg; settings: in vivo, 24 h
[17] = (§3) Drug concentration in IL-23 induced acanthosis in C57BL/6 mouse measured as (3R,5S)-3-Fluoro-5-((3aR,9bR)-9b-((4-fluorophenyl)sulfonyl)-7-(perfluoropropan-2-yl)-2,3,3a,4,5,9b-hexahydro-1H-benzo[e]indole-3-carbonyl)-1-(2-hydroxy-2-methylpropyl)pyrrolidin-2-one at 5 mg/kg, po qd administered for 9 days 2 hrs before IL-23 injection; format: ADME, organism-based; settings: in vivo, 216 h, time 9 day, read-out: Ct
[18] = as §1, with “Toxicity” for “Cmax”, “psoriasis assessed as change in body weight” for “psoriasis”, “at 5 to” for “at”, “injection measured every other day” for “injection”; format: organism-based; settings: in vivo, 0.15 h, dose 5-45 mg/kg, time 9 min
[19] = Ratio of IC90 for inverse agonist activity at RORgammat in human whole blood assessed as IL-17 production by ELISA to drug concentration in IL-23 induced acanthosis in Th17 mouse measured as (3R,5S)-3-Fluoro-5-((3aR,9bR)-9b-((4-fluorophenyl)sulfonyl)-7-(perfluoropropan-2-yl)-2,3,3a,4,5,9b-hexahydro-1H-benzo[e]indole-3-carbonyl)-1-(2-hydroxy-2-methylpropyl)pyrrolidin-2-one at 15 mg/kg, po qd …
[20] = as §1, with “AUC” for “Cmax”; format: ADME, organism-based; parameters: time 9 day, dose 45 mg/kg; settings: in vivo, 216 h
[21] = as §1, with “15” for “45”; format: ADME, organism-based; parameters: route oral, dose 15 mg/kg, time 9 day; settings: in vivo, 216 h
[22] = as §3, with “at 15” for “at 5”; format: ADME, organism-based; settings: in vivo, 216 h, time 9 day, read-out: Ct
[23] = Ratio of IC90 for inverse agonist activity at RORgammat in human whole blood assessed as IL-17 production by ELISA to drug concentration in IL-23 induced acanthosis in Th17 mouse measured as (3R,5S)-3-Fluoro-5-((3aR,9bR)-9b-((4-fluorophenyl)sulfonyl)-7-(perfluoropropan-2-yl)-2,3,3a,4,5,9b-hexahydro-1H-benzo[e]indole-3-carbonyl)-1-(2-hydroxy-2-methylpropyl)pyrrolidin-2-one at 5 mg/kg, po qd administered for 9 days 2 hrs before IL-23 injection
[24] = Solubility of the compound at pH 6.7; format: physicochemical; settings: buffer
Mus musculus [25] = assay: as §1, with “Suppression of ear thickness” for “Cmax”, “15” for “45”, “qd” for “qd administered”, “injection measured every other day relative to IL-23 antibody treatment” for “injection”; format: functional; settings: C57BL/6, po, 216 h, time 9 day
[26] = as §1, with “AUC” for “Cmax”, “for” for “for 9 days”, “injection measured on day 1” for “injection”; format: ADME, organism-based; parameters: time 1 day, dose 45 mg/kg; settings: in vivo, 24 h
[27] = as §2, with “5” for “15”; format: ADME, organism-based; settings: in vivo, 24 h, time 1 day, read-out: Ct

- half-life [1]: 79 min
- half-life [2]: > 120 min
- EC50 [3]: 18 nM
- half-life [4]: 45 min
- EC50 [5]: 30 nM
Compound: N#CCCN1C(=O)[C@H](F)C[C@H]1C(=O)N1CC[C@@]2(S(=O)(=O)c3ccc(F)cc3)c3ccc(C(F)(C(F)(F)F)C(F)(F)F)cc3CC[C@@H]12

- half-life [1]: 74 min
- half-life [2]: 58 min
- EC50 [3]: 30 nM
- half-life [4]: 61 min
Compound: N#Cc1ccc(CN2C(=O)[C@H](F)C[C@H]2C(=O)N2CC[C@@]3(S(=O)(=O)c4ccc(F)cc4)c4ccc(C(F)(C(F)(F)F)C(F)(F)F)cc4CC[C@@H]23)cc1

- half-life [1]: 85 min
- half-life [2]: > 120 min
- half-life [4]: 48 min
Compound: [2H]C([2H])([2H])N1C(=O)[C@@H](F)C[C@H]1C(=O)N1CC[C@@]2(S(=O)(=O)c3ccc(F)cc3)c3ccc(C(F)(C(F)(F)F)C(F)(F)F)cc3CC[C@@H]12

- half-life [1]: 60 min
- half-life [2]: > 120 min
- half-life [4]: 36 min
Compound: O=C1[C@H](F)C[C@@H](C(=O)N2CC[C@@]3(S(=O)(=O)c4ccc(F)cc4)c4ccc(C(F)(C(F)(F)F)C(F)(F)F)cc4CC[C@@H]23)N1CCO

- half-life [1]: 116 min
- half-life [2]: 87 min
- half-life [4]: > 120 min
Compound: CN1C(=O)CC[C@H]1C(=O)N1CC[C@@]2(S(=O)(=O)c3ccc(F)cc3)c3ccc(C(F)(C(F)(F)F)C(F)(F)F)cc3CC[C@@H]12

- half-life [1]: 94 min
- half-life [2]: > 120 min
- half-life [4]: 43 min
Compound: CO[C@H]1C[C@@H](C(=O)N2CC[C@@]3(S(=O)(=O)c4ccc(F)cc4)c4ccc(C(F)(C(F)(F)F)C(F)(F)F)cc4CC[C@@H]23)N(C)C1=O

- half-life [1]: 75 min
- half-life [2]: > 120 min
- half-life [4]: 55 min
Compound: CN1C(=O)[C@H](F)C[C@H]1C(=O)N1CC[C@@]2(S(=O)(=O)c3ccc(F)cc3)c3ccc(C(F)(C(F)(F)F)C(F)(F)F)cc3CC[C@@H]12

- Cmax [6]: 8340 nM
- AUC [7]: 45.2 µM·h
- AUC [8]: 13.9 µM·h
- concentration [9]: 910 nM
- AUC [10]: 9 µM·h
- concentration [11]: 5820 nM
- Cmax [14]: 650 nM
- concentration [15]: 480 nM
- AUC [16]: 30.9 µM·h
- concentration [17]: 150 nM
- AUC [20]: 162.9 µM·h
- Cmax [21]: 2580 nM
- concentration [22]: 1360 nM
- solubility [24]: ≥ 4700 µg/mL
- AUC [26]: 274.3 µM·h
- concentration [27]: 210 nM
Compound: CC(C)(CN1C(=O)[C@H](F)C[C@H]1C(=O)N1CC[C@@]2(S(=O)(=O)c3ccc(F)cc3)c3ccc(C(F)(C(F)(F)F)C(F)(F)F)cc3CC[C@@H]12)OP(=O)(O)O
- Ratio [12]: 13.9
- inhibition in vivo at 45 mg/kg (Mus musculus [13]): 67%
- Activity [18]: Non-Toxic
- Ratio [19]: 3.2
- Ratio [23]: 0.4
- inhibition in vivo at 15 mg/kg (Mus musculus [25]): 38%

- EC50 [3]: 1500 nM
Compound: O=C(O)CN1C(=O)[C@H](F)C[C@H]1C(=O)N1CC[C@@]2(S(=O)(=O)c3ccc(F)cc3)c3ccc(C(F)(C(F)(F)F)C(F)(F)F)cc3CC[C@@H]12

- half-life [1]: 25 min
- half-life [2]: 27 min
- half-life [4]: 10 min
Compound: CN1C(=O)[C@@H](O)C[C@H]1C(=O)N1CC[C@@]2(S(=O)(=O)c3ccc(F)cc3)c3ccc(C(F)(C(F)(F)F)C(F)(F)F)cc3CC[C@@H]12

- half-life [1]: 29 min
- half-life [2]: 24 min
- EC50 [3]: 7 nM
- half-life [4]: 35 min
- EC50 [5]: 57 nM
Compound: O=C1[C@H](F)C[C@@H](C(=O)N2CC[C@@]3(S(=O)(=O)c4ccc(F)cc4)c4ccc(C(F)(C(F)(F)F)C(F)(F)F)cc4CC[C@@H]23)N1Cc1ccc(F)cc1

- half-life [1]: > 120 min
- half-life [2]: > 120 min
- half-life [4]: > 120 min
Compound: [2H]C([2H])([2H])N1C(=O)[C@H](F)C[C@H]1C(=O)N1CC[C@@]2(S(=O)(=O)c3ccc(F)cc3)c3ccc(C(F)(C(F)(F)F)C(F)(F)F)cc3CC[C@@H]12

- half-life [1]: 52 min
- half-life [2]: 50 min
- half-life [4]: 45 min
Compound: CC(C)N1C(=O)[C@H](F)C[C@H]1C(=O)N1CC[C@@]2(S(=O)(=O)c3ccc(F)cc3)c3ccc(C(F)(C(F)(F)F)C(F)(F)F)cc3CC[C@@H]12

- half-life [1]: 88 min
- half-life [2]: 57 min
- half-life [4]: 58 min
Compound: [2H]C([2H])([2H])N1C(=O)C(F)(F)C[C@H]1C(=O)N1CC[C@@]2(S(=O)(=O)c3ccc(F)cc3)c3ccc(C(F)(C(F)(F)F)C(F)(F)F)cc3CC[C@@H]12
